Results taken from article PMC8776228 (International Journal of Molecular Sciences, 2022).
In brackets after ≈: the same amount, converted by molar mass. Several values for one entry are separate records, joined by “and”; a condition that tells them apart may be missing. Equal entries are not always repeated. Where two headings read alike, the source gives them in different places.

Experiments:
M. tuberculosis H37Rv [1] = experiment: microbe, parasite or virus in culture; assay type: cell-based; conditions: Mycobacterium tuberculosis
M. smegmatis DprE1 [2] = biological target: T1, M. smegmatis DprE1 (Mycolicibacterium smegmatis, UniProt A0R607); experiment: biochemical; set-up: species or system Mycobacterium smegmatis
M. smegmatis mc^2155 [3] = experiment: microbe, parasite or virus in culture; assay type: cell-based, Mycobacterium smegmatis; conditions: Mycolicibacterium smegmatis
M. tuberculosis H37Rv [4] = test system: M. tuberculosis H37Rv
M. smegmatis DprE1 C394A [5] = biological target: T2, M. smegmatis DprE1 C394A (Mycolicibacterium smegmatis, UniProt A0R607, C386A)
M. smegmatis DprE1 C394S [6] = biological target: T3, M. smegmatis DprE1 C394S (Mycolicibacterium smegmatis, UniProt A0R607, C386S)
[7] = test system: M. smegmatis mc^2155-pJV53H DprE1 L282F
[8] = test system: M. smegmatis mc^2155-pJV53H DprE1 L282V
M. tuberculosis H37Rv [9] = test system: M. tuberculosis H37Rv; remark: listed apart in the source
M. smegmatis mc^2155 [10] = test system: M. smegmatis mc^2155
M. avium = conditions: cited from earlier work
M. bovis = conditions: cited from earlier work
M. tuberculosis = conditions: cited from earlier work
M. smegmatis = conditions: cited from earlier work
M. kansasii = conditions: cited from earlier work
M. abscessus = conditions: cited from earlier work
M. smegmatis DprE1 C394A [11] = biological target: T2, M. smegmatis DprE1 C394A; experiment: biochemical
M. smegmatis DprE1 C394S [12] = biological target: T3, M. smegmatis DprE1 C394S; experiment: biochemical
M. smegmatis DprE1 L282F = M. smegmatis DprE1 L282F (Mycolicibacterium smegmatis, UniProt A0R607, L274F/L282F); experiment: biochemical
M. smegmatis DprE1 L282V = M. smegmatis DprE1 L282V (Mycolicibacterium smegmatis, UniProt A0R607, L274V/L282V); experiment: biochemical
M. smegmatis DprE1 [13] = biological target: T1, M. smegmatis DprE1; conditions: cited from earlier work

## NNC(=O)c1ccncc1 [INH, isoniazid]
M. tuberculosis H37Rv [1]; read-out: MIC INH
  MIC: 0.025 µg/mL (≈ 0.182 µM)

## CO/N=C1\C[C@]2(C[C@@H]3C[C@@H](C/C=C(\C)C[C@@H](C)/C=C/C=C4\CO[C@@H]5[C@H](O)C(C)=C[C@@H](C(=O)O3)[C@]45O)O2)O[C@H](/C(C)=C/C(C)C)[C@H]1C [Moxidectin]
M. smegmatis DprE1 [2]
  IC50: 6.1 ± 0.9 µM

## Ivermectin
M. smegmatis DprE1 [2]; read-out: IC50
  IC50: 13.2 ± 3.3 µM

## Milbemycin oxime
M. smegmatis DprE1 [2]; read-out: IC50
  IC50: 25.5 ± 5.6 µM

## CO[C@H]1C[C@H](O[C@@H]2/C(C)=C/C[C@@H]3C[C@@H](C[C@]4(CC[C@H](C)[C@@H](C5CCCCC5)O4)O3)OC(=O)[C@@H]3C=C(C)/C(=N/O)[C@H]4OC/C(=C\C=C\[C@@H]2C)[C@]43O)O[C@@H](C)[C@@H]1O [Selamectin]
M. tuberculosis H37Rv [1]; read-out: MIC SEL
  MIC: 4 µg/mL (≈ 5.19 µM)
M. smegmatis DprE1 [2]; IC50
  IC50: ~2.6 µM and 2.6 µM
M. smegmatis mc^2155 [3]; MC^2155, read-out: MIC SEL
  MIC: 4 µg/mL (≈ 5.19 µM)
M. tuberculosis H37Rv [4]
  day at which the limit of detection (1-log CFU/mL) was reached: 22 day
M. tuberculosis NTB1
  day at which the limit of detection (1-log CFU/mL) was reached: 11 day
  time–kill activity against NTB1 compared to H37Rv: more active
M. smegmatis DprE1 C394A [5]
  IC50 compared to the wild type enzyme: in the same range
M. smegmatis DprE1 C394S [6]
  IC50 compared to the wild type enzyme: slightly higher
[7]
  change in susceptibility compared to wild-type M. smegmatis (MIC): no changes in their susceptibilities
[8]
  change in susceptibility compared to wild-type M. smegmatis (MIC): no changes in their susceptibilities
M. tuberculosis H37Rv [9]
  ^14C uptake: general decrease
  changes in lipid composition associated with inhibition of arabinan synthesis: did not result in significant changes
M. smegmatis mc^2155 [10]
  ^14C uptake: general decrease
  changes in lipid composition associated with inhibition of arabinan synthesis: did not result in significant changes
M. avium
  MIC: 16 µg/mL (≈ 20.8 µM)
M. bovis
  MIC: 2 to 4 µg/mL
M. tuberculosis
  MIC: 2 to 4 µg/mL
M. smegmatis
  MIC: 2 to 4 µg/mL
M. kansasii
  MIC: 0.5 µg/mL (≈ 0.649 µM)
M. abscessus
  MIC: > 32 µg/mL
M. smegmatis DprE1 C394A [11]
  IC50: 3.9 ± 1 µM
M. smegmatis DprE1 C394S [12]
  IC50: 12.1 ± 1.2 µM
M. smegmatis DprE1 L282F
  IC50: 1000 ± 700 nM
M. smegmatis DprE1 L282V
  IC50: 50.6 ± 9.2 µM

## C[C@H]1COC2(CCN(c3nc(=O)c4cc(C(F)(F)F)cc([N+](=O)[O-])c4s3)CC2)O1 [BTZ043]
M. tuberculosis H37Rv [1]; read-out: MIC BTZ043
  MIC: 0.001 µg/mL (≈ 0.00232 µM)
M. smegmatis mc^2155 [3]; MC^2155, read-out: MIC BTZ-043
  MIC: 0.008 µg/mL (≈ 0.0185 µM)
M. smegmatis DprE1 [13]
  IC50: 4 nM
